{
  "source": "patent US20240093151A1",
  "about": "“DEVICE AND METHOD FOR OBTAINING IMMUNO-STIMULATORY ANTIGEN-PRESENTING CELLS” (Transimmune AG, priority 2015, published 2024)",
  "system": "platelets",
  "experiment": "Activation of platelets by plasma protein fragment",
  "format": "cell-based",
  "note": "Ends that are not written are not given here.",
  "data": [
    {"sequence": "HHLGGAKQAGDV", "values": [
      {"measurement": "ability to activate platelets", "result": "able to activate platelets"}
    ]}
  ]
}
